Measured values published in the supplement of paper PMC10307832.

Key:
Test in all cases: relative viability (nuclei count vs DMSO), 5 days (fraction); higher = more cells survive
[1] = compound: COc1cc2nc(N3CCCN(C)CC3)nc(NC3CCN(Cc4ccccc4)CC3)c2cc1OC + CS(=O)(=O)N1CCN(Cc2cc3nc(-c4cccc5[nH]ncc45)nc(N4CCOCC4)c3s2)CC1 [Pictilisib] (partner 1 µM)
Outline: (§1)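 Relative viability is defined as nuclei in treated wells over nuclei in vehicle wells. Duplicate plates were run and medians reported. Lung cancer cell lines in 1536-well plates were dosed by pin tool one day after seeding, with one drug or with a fixed anchor-drug dose plus five library-drug doses (not always all listed) in √10 steps, and nuclei were counted after 5 days.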

[2] = compound: COc1cc2nc(N3CCCN(C)CC3)nc(NC3CCN(Cc4ccccc4)CC3)c2cc1OC + C[C@@H](Oc1cc(-c2cnn(C3CCNCC3)c2)cnc1N)c1c(Cl)ccc(F)c1Cl [Crizotinib] (partner 1 µM)
Outline: as §1

[3] = compound: Cc1cc([C@@H](C)Nc2ccccc2C(=O)O)c2nc(N3CCOCC3)cc(=O)n2c1 [AZD6482] + CC(C)C[C@H](NC(=O)[C@H](Cc1ccccc1)NC(=O)c1cnccn1)B(O)O [Bortezomib] (partner 0.002 µM)
Outline: as §1

[4] = compound: Cc1cc([C@@H](C)Nc2ccccc2C(=O)O)c2nc(N3CCOCC3)cc(=O)n2c1 [AZD6482] + CC(=O)Nc1cccc(-n2c(=O)n(C3CC3)c(=O)c3c(Nc4ccc(I)cc4F)n(C)c(=O)c(C)c32)c1 [Trametinib] (partner 0.02 µM)
Outline: as §1

Cell Line: UMC-11
- relative viability ([1]; first compound 0.2 µM): 0.84
- relative viability ([1]; first compound 0.6325 µM): 0.805
- relative viability ([1]; first compound 2 µM): 0.84
- relative viability ([1]; first compound 6.325 µM): 0.681
- relative viability ([2]; first compound 0.2 µM): 0.614
- relative viability ([2]; first compound 0.6325 µM): 0.498
- relative viability ([2]; first compound 2 µM): 0.673
- relative viability ([2]; first compound 6.325 µM): 0.44
- relative viability ([3]; first compound 0.08 µM): 0.836
- relative viability ([3]; first compound 0.253 µM): 0.628
- relative viability ([3]; first compound 0.8 µM): 0.862
- relative viability ([3]; first compound 2.53 µM): 0.627
- relative viability ([3]; first compound 8 µM): 0.75
- relative viability ([4]; first compound 0.08 µM): 0.681
- relative viability ([4]; first compound 0.253 µM): 0.659
- relative viability ([4]; first compound 0.8 µM): 0.705
- relative viability ([4]; first compound 2.53 µM): 0.571
- relative viability ([4]; first compound 8 µM): 0.9
